This note sets out measurements from US20200085782A1, “COMPOSITIONS AND METHODS OF ENHANCING OR AUGMENTING TYPE I IFN PRODUCTION” (Mavupharma, Inc., priority 2016, published 2020).

The test system of one assay is THP-1 cells. Description: PDE inhibitors library screen on cGAMP activated THP-1 cells, IFNβ ELISA. The format is cell-based, human. The settings on record: THP-1 cells activated with 2′,3′-cGAMP; test compound 10 μM; 24 hours; FIG. 3A-3C. How it is done:
THP-1 Cell Activation and Screening of Test Compounds: • (a) THP-1 cells from bulk cultures were counted and suspended in RPMI 1640, 20% FBS, 2.5 mM L-alanyl-L-glutamine at a concentration of 5.5×10^6 cells/mL. The THP-1 cells were subsequently seeded into 96 well round bottom plates—volume of 180 μL/well (1×10^6 cells per well), and the plate was incubated for 1 hour at 37° C., 5% CO2. • (b) Test compounds comprising known phosphodiesterase inhibitors (PDEs), were screened in triplicate (N1, N2, N3) on THP-1 cells. For compound screening, test compounds were assayed at a final concentration of 10 μM. A 200 μM (0.2 mM) working solution of each compound was prepared by diluting 10 mM DMSO stock solutions of each compound in media at a dilution of 50:1 (1640, 20% FBS, 2.5 mM L-alanyl-L-glutamine). […] Cell culture supernatants were then transferred to a clean plate and stored at −80° C. until ready to analyze for IFNβ levels. • (j) IFNβ levels in cell culture supernatants were determined by ELISA according to the manufacturer's instructions (VeriKine Human IFNβ Assay). • (k) The interpolated data was normalized to vehicle control, or unstimulated control, and analyzed.
(In an ELISA, binding on a coated surface is turned into a signal by an enzyme label.)

Assay [1] concerns the target T1, human recombinant ENPP1 (Homo sapiens, UniProt P22413).
T1 sequence (P22413 1-925): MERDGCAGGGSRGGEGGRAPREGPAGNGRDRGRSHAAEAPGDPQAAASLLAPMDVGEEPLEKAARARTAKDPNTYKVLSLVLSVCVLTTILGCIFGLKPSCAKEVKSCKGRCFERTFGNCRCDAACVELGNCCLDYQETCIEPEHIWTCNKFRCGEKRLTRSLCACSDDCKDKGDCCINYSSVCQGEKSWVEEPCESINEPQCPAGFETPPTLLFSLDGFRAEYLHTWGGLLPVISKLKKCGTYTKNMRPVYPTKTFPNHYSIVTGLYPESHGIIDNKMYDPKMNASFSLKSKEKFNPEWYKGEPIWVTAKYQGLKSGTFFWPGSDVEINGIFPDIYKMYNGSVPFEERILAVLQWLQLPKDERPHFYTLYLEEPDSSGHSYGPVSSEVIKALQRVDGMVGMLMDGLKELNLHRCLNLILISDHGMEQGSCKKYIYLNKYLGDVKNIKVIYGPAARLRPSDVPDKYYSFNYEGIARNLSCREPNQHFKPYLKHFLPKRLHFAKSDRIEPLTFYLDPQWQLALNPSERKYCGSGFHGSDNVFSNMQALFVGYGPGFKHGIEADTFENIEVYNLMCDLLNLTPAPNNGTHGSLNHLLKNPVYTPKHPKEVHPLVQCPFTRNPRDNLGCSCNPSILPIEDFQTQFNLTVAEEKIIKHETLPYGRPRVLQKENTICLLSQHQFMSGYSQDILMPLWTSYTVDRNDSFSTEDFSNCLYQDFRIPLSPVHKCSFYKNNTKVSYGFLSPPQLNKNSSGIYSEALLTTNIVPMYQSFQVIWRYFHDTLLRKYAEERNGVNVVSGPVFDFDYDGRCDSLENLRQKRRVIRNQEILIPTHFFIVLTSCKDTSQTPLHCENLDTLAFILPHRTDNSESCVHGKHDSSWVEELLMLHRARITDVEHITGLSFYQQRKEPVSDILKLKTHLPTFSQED
Description: ENPP1 assay with 2′,3′-cGAMP substrate (AMP-Glo). The format is biochemical. How it is done: The AMP-Glo™ Assay Kit contains two reagents that are added sequentially. The first converts the 5′-AMP produced in the reaction to 5′ADP. The second converts the 5′-ADP to 5′ATP and reacts the 5′-ATP with the luciferase/luciferin pair to produce the luminescence signal. […] Inhibitors are added at final concentrations ranging between 10 μM and 30 pM depending on the compound. Duplicate wells are run at each inhibitor concentration. The final assay volume is 18 μL and human recombinant ENPP1 is present at 5 ng/well. The assay is initiated by the addition of substrate (20 μM 2′3′cGAMP final concentration), and incubated for 30 minutes at 37° C. To stop the reaction, 12 μl of AMP-Glo reagent I is added and the plate is incubated for 60 minutes at room temperature. 25 μl of AMP-detection reagent is then added and the wells are again incubated for 60 minutes at room temperature. The luminescence signal is then measured using a plate-reading luminometer. Each assay plate also includes wells with no enzyme added (MIN OD) and wells with no inhibitor added (MAX OD). The percent inhibition of ENPP1 for each sample is then calculated as: […]
IC50 values of compounds were calculated by entering the percent inhibition values into a sigmoidal variable slope nonlinear regression model in GraphPad Prism® software. IC50 values were converted to Ki values using the Cheng-Prusoff equation2 where the Km was 15 μM, based on internal determinations.

Assay [2] concerns the target T1, human recombinant ENPP1. Description: ENPP1 assay with AMP-pNP substrate (ATP analog), absorbance at 405 nm. The format is biochemical. Particulars: read-out: ENPP1 inhibition Ki, AMP-pNP Substrate. Here is the method: ENPP1 is an ectonucleotidase that hydrolyzes both the STING activator 2′,3′-cGAMP and 5′ATP (ATP). In some instances, an inhibitor of ENPP-1 is capable of selectively blocking the hydrolysis of 2′,3′-cGAMP while only minimally inhibiting the hydrolysis of ATP. […] The ENPP1 assay with AMP-pNP substrate is conducted in a buffer containing 50 mM Tris-HCl (pH 8.5)/250 mM NaCl/0.5 mM CaCl2/1 μM ZnCl2/0.1% DMSO. Inhibitors are added at final concentrations ranging between 10 μM and 30 pM depending on the compound. Duplicate wells are run at each inhibitor concentration. The final assay volume is 40 μL and human recombinant ENPP1 is present at 60 ng/well. The assay is initiated by the addition of substrate (300 μM AMP-pNP final concentration), and incubated for 20 minutes at 37° C. The absorbance at 405 nm is then read in a Tecan® plate reader. Each assay plate also includes wells with no enzyme added (MIN OD) and wells with no inhibitor added (MAX OD). The percent inhibition of ENPP1 for each sample is then calculated as: […]
IC50 values of compounds were calculated by entering the percent inhibition values into a sigmoidal variable slope nonlinear regression model in GraphPad Prism® software. IC50 values were converted to Ki values using the Cheng-Prusoff equation, where the Km was 151 μM, based on internal determinations

As usually defined, the inhibition is the drop in the measured response relative to a control, in per cent. Take `O=c1cc(-c2ccc(O)c(O)c2)oc2cc(O)cc(O)c12` [Compound 1]: the “cGAMP mediated IFNβ production” value with THP-1 cells is “augmentation of cGAMP mediated IFNβ production”. Besides, the inhibition at 1 µM on human recombinant ENPP1 [1] (at 1 μM compound, AMP-GLO method, read-out: Inhibition of ENPP1 with cGAMP as the Substrate) came to 76%. At human recombinant ENPP1 [1] (at 10 μM compound, AMP-GLO method, read-out: Inhibition of ENPP1 with cGAMP as the Substrate), the inhibition at 10 µM came to 99%.
For `COc1cc2ncnc(N3CCC(CCN)CC3)c2cc1OC` [Compound 5], the “Substrate Selectivity Ki Ratio AMP-pNP/2′3′cGAMP” value on human recombinant ENPP1 [1] (Ki (AMP-pNP)/Ki (2′3′-cGAMP)) was above 642.
The same measure, in the same setting: the value for `COc1cc2ncc(C#N)c(N3CCC(CCNS(C)(=O)=O)CC3)c2cc1OC` [Compound 7] was 244.
Take `CS(=O)(=O)N1CCc2ccc(-c3ncnc4ccccc34)cc2C1` [Compound 8]: the “Substrate Selectivity Ki Ratio AMP-pNP/2′3′cGAMP” value on human recombinant ENPP1 [1] (Ki (AMP-pNP)/Ki (2′3′-cGAMP)) is above 158.
`CN1CNc2ncnc(N3CCC(CCNS(C)(=O)=O)CC3)c21` [Compound 9]: at human recombinant ENPP1 [1] (Ki (AMP-pNP)/Ki (2′3′-cGAMP)), the “Substrate Selectivity Ki Ratio AMP-pNP/2′3′cGAMP” value is above 128.
A word on the Ki: it is the equilibrium dissociation constant of an inhibitor or competing ligand from its target. Regarding `COc1cc2ccc(=O)n(Cc3ccc(NS(N)(=O)=O)cc3)c2cc1OC` [Compound 10], the “Substrate Selectivity Ki Ratio AMP-pNP/2′3′cGAMP” value on human recombinant ENPP1 [1] (Ki (AMP-pNP)/Ki (2′3′-cGAMP)) is listed as above 127. Besides, the Ki was 234 nM on human recombinant ENPP1 [1] (read-out: ENPP1 inhibition Ki, cGAMP Substrate) and above 30000 nM on human recombinant ENPP1 [2].
Take `CCN(C)S(=O)(=O)NCCC1CCN(c2ncnc3cc(OC)c(OC)cc23)CC1` [Compound 12]: at human recombinant ENPP1 [1] (Ki (AMP-pNP)/Ki (2′3′-cGAMP)), the “Substrate Selectivity Ki Ratio AMP-pNP/2′3′cGAMP” value is listed as above 89.0.
Consider `COc1cc2ncnc(N3CCC(CNS(N)(=O)=O)CC3)c2cc1OC` [Compound 13], for which, at human recombinant ENPP1 [1] (Ki (AMP-pNP)/Ki (2′3′-cGAMP)), the “Substrate Selectivity Ki Ratio AMP-pNP/2′3′cGAMP” value is 86.7.
With `COc1cc2ncnc(N3CCN(C(=O)CNS(N)(=O)=O)CC3)c2cc1OC` [Compound 15], the “Substrate Selectivity Ki Ratio AMP-pNP/2′3′cGAMP” value at human recombinant ENPP1 [1] (Ki (AMP-pNP)/Ki (2′3′-cGAMP)) is given as 57.3.
Take `COc1cc2ncnc(-c3ccc(CNS(N)(=O)=O)cc3)c2cc1OC` [Compound 17]: the “Substrate Selectivity Ki Ratio AMP-pNP/2′3′cGAMP” value on human recombinant ENPP1 [1] (Ki (AMP-pNP)/Ki (2′3′-cGAMP)) turned out to be 48.3.
In the case of `COc1cc2nc(N)nc(N3CCC(CCNS(N)(=O)=O)CC3)c2cc1OC` [Compound 18], the “Substrate Selectivity Ki Ratio AMP-pNP/2′3′cGAMP” value at human recombinant ENPP1 [1] (Ki (AMP-pNP)/Ki (2′3′-cGAMP)) is 47.7.
With `COc1cc2ncnc(N3CCC4(CC3)CCN(S(C)(=O)=O)C4)c2cc1OC` [Compound 19], at human recombinant ENPP1 [1] (Ki (AMP-pNP)/Ki (2′3′-cGAMP)), the “Substrate Selectivity Ki Ratio AMP-pNP/2′3′cGAMP” value is on record as 44.8.
For `CNc1nc(N2CCC(CCNS(N)(=O)=O)CC2)c2cc(OC)c(OC)cc2n1` [Compound 20], at human recombinant ENPP1 [1] (Ki (AMP-pNP)/Ki (2′3′-cGAMP)), the “Substrate Selectivity Ki Ratio AMP-pNP/2′3′cGAMP” value was above 38.7.
As to `COc1cc2ncnc(-c3ccc4c(c3)CN(S(N)(=O)=O)CC4)c2cc1OC` [Compound 21], at human recombinant ENPP1 [1] (Ki (AMP-pNP)/Ki (2′3′-cGAMP)), the “Substrate Selectivity Ki Ratio AMP-pNP/2′3′cGAMP” value is 36.2.
With `COc1cc2ncnc(NCc3ccc(NS(N)(=O)=O)cc3)c2cc1OC` [Compound 22], the “Substrate Selectivity Ki Ratio AMP-pNP/2′3′cGAMP” value on human recombinant ENPP1 [1] (Ki (AMP-pNP)/Ki (2′3′-cGAMP)) is 34.7.
`COc1cc2nc(-c3ccccc3)nc(N3CCC(CCNS(N)(=O)=O)CC3)c2cc1OC` [Compound 23]: on human recombinant ENPP1 [1] (Ki (AMP-pNP)/Ki (2′3′-cGAMP)), the “Substrate Selectivity Ki Ratio AMP-pNP/2′3′cGAMP” value is on record as above 23.9.
As to `COc1cc2ncnc(N3CCC4(CC3)CN(S(C)(=O)=O)C4)c2cc1OC` [Compound 24], at human recombinant ENPP1 [1] (Ki (AMP-pNP)/Ki (2′3′-cGAMP)), the “Substrate Selectivity Ki Ratio AMP-pNP/2′3′cGAMP” value is 18.7.
Consider `COc1cc2nccc(Oc3ccc(NS(=O)(=O)c4ccccc4)cc3)c2cc1OC` [Compound 25], for which, at human recombinant ENPP1 [1] (Ki (AMP-pNP)/Ki (2′3′-cGAMP)), the “Substrate Selectivity Ki Ratio AMP-pNP/2′3′cGAMP” value is above 6.80 and the “selectivity for inhibition of cGAMP over AMP-pNP hydrolysis by ENPP1” value is on record as around 6.8 fold.
